Data reported in patent US8431581B2, “Imidazopyrimidines and uses thereof” (priority 2008, dated 2013).

Tests used:
[1] = test system: HIV-1 reporter virus, integrase Q148H/G140S (QHGS); test: Luciferase reporter virus infectivity assay, QHGS mutant; type: cell-based; details: Human immunodeficiency virus 1, HEK-293T, read-out: Luciferase assay results QHGS (EC50)
Excerpt: (§1) Infectivity assays using reporter viruses derived from lentiviral vectors capable of a single round of infection were used to determine the activity (EC50) of compounds. The DNA used to generate viruses for infection was the full-length HIV-1 genome which had been envelope-deleted. In addition, a reporter gene (the firefly luciferase gene from Photinus pyralis) was cloned into the nef region of the HIV backbone for ease of assay readout. […]. Culture supernatants containing VSV-G pseudotyped virions were harvested 64 h post transfection, clarified by centrifugation to remove cell debris, and frozen at −70° C. until use.
(§2) HIV integrase was mutated within a shuttle vector (pGEM) containing the majority of the HIV-1 gag and pol sequence using site-directed mutagenesis to generate sequences that are known to confer resistance to published integrase inhibitors. These include but are not limited to mutations such as Q148H/G140S (in tables 2 and 3 # QHGS), N155H/E92Q (in table 2 # NHEQ), F121Y/T124K (in table 2 FYTK), Y143R (in table 2 # Y143R) and the triple mutant Q148K/G140A/E138A. (in table 2 # QKGAEA). The mutated integrase coding region within the shuttle vector was sequence verified, and then exchanged for the wild-type (WT) coding sequence in the reporter virus DNA backbone.
(§3) 293T cells were plated out at 12000 cells per well in CellView 96-well cell culture plates (Invitrogen) 16 h prior to compound addition. Compounds were preincubated with cells for 4 h at 37° C. prior to the addition of virus sufficient to generate approximately 10000 Luciferase light units (as measured by the Victor Wallace luminometer) upon assaying using the Bright-Glo™ reagent (Promega) according to the manufacturer's instructions at 48 h post infection.

[2] = test system: HIV-1 reporter virus, wild-type (WT) integrase; test: Luciferase reporter virus infectivity assay, WT; type: cell-based; details: Human immunodeficiency virus 1, HEK-293T, 48 h, read-out: Luciferase assay results WT (EC50)
Excerpt: as §1, §2, §3

[3] = test system: HIV-1 reporter virus, integrase N155H/E92Q (NHEQ); test: Luciferase reporter virus infectivity assay, NHEQ mutant; type: cell-based; details: Human immunodeficiency virus 1, HEK-293T, read-out: Luciferase assay results NHEQ (EC50)
Excerpt: as §1, §2, §3

[4] = test system: HIV variant T661 S153Y integrase; test: Phenosense (PhenoScreen) assay, T661 S153Y variant; type: cell-based; details: Human immunodeficiency virus 1, read-out: Phenosense assay T661 S153Y activity value
Excerpt: (§4) Monogram Bioscience' PhenoScreen assay allows the evaluation of integrase inhibitors for activity against a variety of HIV variants. The assay uses virus generated from 2 DNA constructs; one containing the HIV LTR, gag and pol regions, as well as a luciferase reporter gene in place of the viral envelope genes, and a second DNA construct containing the amphotrophic murine leukemia virus (A-MLV) envelope gene required to pseudotype virions and render them capable of entry into a target cell. Viruses generated using these constructs by transfection into a producer cell line such as 293T are capable of one-round of infection only. Successful integration events are directly proportional to the levels of luciferase expression 48-72 h after infection.
(§5) The viral variants chosen by Avexa Ltd. to screen their in-house integration inhibitors against consist of mutations within the viral integrase enzyme known to confer resistance to a number of known integration inhibitors published in the literature. In particular, the viral variants containing the Q148H/G140S double mutation in integrase, and the N155H/E92Q double mutation in integrase, represent two of the more common viruses identified to arise in patients that are failing treatment with Isentress (Raltegravir, MK-0518).
(§6) Both the Phenosense assay and the Enzyme assay give substantially the same activity values for any particular compound and enzyme pair. The activity of one compound in one assay can therefore be directly compared to the activity of a second compound in the other assay.

[5] = test system: HIV variant Y143R integrase; test: Phenosense (PhenoScreen) assay, Y143R variant; type: cell-based; details: Human immunodeficiency virus 1, read-out: Phenosense assay Y143R activity value
Excerpt: as §4, §5, §6

[6] = test system: HIV variant G140S Q148H integrase; test: Phenosense (PhenoScreen) assay, G140S Q148H variant; type: cell-based; details: Human immunodeficiency virus 1, read-out: Phenosense assay G140S Q148H activity value
Excerpt: as §4, §5, §6

HIV WT integrase = test: Phenosense (PhenoScreen) assay, wild type virus; type: cell-based; details: Human immunodeficiency virus 1, read-out: Phenosense assay WT activity value
Excerpt: as §4, §5, §6

[7] = test system: HIV variant T125K F121Y integrase; test: Phenosense (PhenoScreen) assay, T125K F121Y variant; type: cell-based; details: Human immunodeficiency virus 1, read-out: Phenosense assay T125K F121Y activity value
Excerpt: as §4, §5, §6

HIV integrase WT = target: T1, HIV integrase WT (Human immunodeficiency virus type 1 group M subtype B, UniProt P12497); test: Strand transfer assay (enzyme assay), wild type; type: biochemical, HIV-1
T1 construct: The integrase coding region was then subject to PCR and cloned into a bacterial expression vector; made in house
Excerpt: (§7) HIV integrase was mutated within a shuttle vector (pGEMNLHE) containing the majority of the HIV-1 gag and pol sequence using site directed mutagenesis to generate integrase sequences that have been published as conferring resistance to published integrase inhibitors. These include, but are not limited to, mutations such as Q148K, Q148H/G140S and N155H/E92Q. The integrase coding region was then subject to PCR and cloned into a bacterial expression vector. The specific introduction of desired mutation(s) was confirmed by sequence analysis. Proteins were expressed, purified and used in strand transfer assays.
(§8) A strand transfer assay procedure similar to that published (Ovenden et al. Phytochemistry. 2004 December; 65(24):3255-9.) is used. Briefly, 400 ng of the enzyme, wild type or drug resistant mutant, is mixed with the compound to be tested and incubated with 30 nM substrate DNA. The substrate DNA is designed to mimic HIV DNA termini that has undergone 3′ end processing, and consists of the annealed U5 LTR sequence oligonucleotides tagged with Digoxigenin (DIG; 5′-[…]-DIG-3′) or biotin (5′-Bio-[…]-3′) so that each substrate has either a DIG or Bio tag on opposite strands. Reactions are carried out for 1 hr at 37° C. Products generated as a result of strand transfer activity are bound to streptavidin plates and detected using anti-DIG-alkaline phosphatase conjugate and p-nitro phenyl phosphate substrate.
as §6

[8] = test system: HIV variant E92Q N155H integrase; test: Phenosense (PhenoScreen) assay, E92Q N155H variant; type: cell-based; details: Human immunodeficiency virus 1, read-out: Phenosense assay E92Q N155H activity value
Excerpt: as §4, §5, §6

HIV integrase E92Q/N155H = target: T2, HIV integrase E92Q/N155H (Human immunodeficiency virus type 1 group M subtype B, UniProt P12497, E1239Q/N1302H); test: Strand transfer assay (enzyme assay), E92Q/N155H mutant; type: biochemical, HIV-1
T2 construct: The integrase coding region was then subject to PCR and cloned into a bacterial expression vector; made in house
Excerpt: as §7, §8, §6

[9] = target: T3, HIV integrase G140S/Q148H (Human immunodeficiency virus type 1 group M subtype B, UniProt P12497, G1287S/Q1295H); test: Strand transfer assay (enzyme assay), G140S/Q148H mutant; type: biochemical, HIV-1
T3 construct: The integrase coding region was then subject to PCR and cloned into a bacterial expression vector; made in house
Excerpt: as §7, §8, §6

Compound | EC50 [1] | EC50 [2] | IC50 (HIV integrase WT) | IC50 (HIV integrase E92Q/N155H) | IC50 [9] | further results
C[C@H]1CN(C(=O)Cn2ccn3c(=O)c(O)c(-c4ncc(Cc5ccc(F)cc5)s4)nc23)C[C@H](C)O1 [drawing 254] | 100 to 1000 nM | 1 to 100 nM |  |  |  | EC50 [3]: 100 to 1000 nM
O=C(Cn1ccn2c(=O)c(O)c(-c3ncc(Cc4ccc(F)cc4)o3)nc12)N1CCCCC1 |  |  | 1 to 100 nM |  |  | EC50 [4]: 1 to 100 nM; EC50 [5]: 100 to 1000 nM; EC50 [6]: 1 to 10 µM; EC50 (HIV WT integrase): 1 to 100 nM; EC50 [7]: 100 to 1000 nM; EC50 [8]: 0.1 to 1 µM
Cn1ccn2c(=O)c(O)c(C(=O)NCc3ccc(F)cc3)nc12 |  |  | 100 to 1000 nM |  |  | EC50 [4]: 1000 to 10000 nM; EC50 [5]: 100 to 1000 nM; EC50 [6]: > 10 µM; EC50 (HIV WT integrase): 100 to 1000 nM; EC50 [7]: > 10000 nM; EC50 [8]: > 10 µM
CN1CCN(C(=O)Cn2ccn3c(=O)c(O)c(-c4ncc(Cc5ccc(F)cc5)s4)nc23)CC1 | > 1000 nM | 100 to 1000 nM |  |  |  | EC50 [3]: 100 to 1000 nM
Cn1ccn2c(=O)c(O)c(-c3ncc(Cc4ccc(F)cc4)s3)nc12 |  |  | 1 to 100 nM | 100 to 1000 nM | 1 to 100 nM | 
C[C@H]1CN(C(=O)Cn2ccn3c(=O)c(O)c(-c4ncc(Cc5ccc(Cl)c(Cl)c5)s4)nc23)C[C@H](C)O1 | 100 to 1000 nM | 1 to 100 nM |  |  |  | 
O=C(Cn1ccn2c(=O)c(O)c(-c3ncc(Cc4ccc(F)cc4)s3)nc12)N1CCCCC1 | > 1000 nM | 1 to 100 nM |  |  |  | 
Cn1ccn2c(=O)c(O)c(-c3ncc(Cc4ccc(Cl)cc4)s3)nc12 |  |  | 1 to 100 nM | 100 to 1000 nM | 100 to 1000 nM | 
Cn1ccn2c(=O)c(O)c(-c3ncc(Cc4ccc(Cl)c(Cl)c4)s3)nc12 |  |  | 1 to 100 nM | 100 to 1000 nM | 100 to 1000 nM | 
C[C@H]1CN(C(=O)Cn2ccn3c(=O)c(O)c(-c4ncc(Cc5ccc(F)c(Cl)c5)s4)nc23)C[C@H](C)O1 | 100 to 1000 nM | 100 to 1000 nM |  |  |  | EC50 [3]: 100 to 1000 nM
Cn1ccn2c(=O)c(O)c(-c3ncc(Cc4ccc(F)c(Cl)c4)s3)nc12 |  |  | 1 to 100 nM | 100 to 1000 nM | 100 to 1000 nM | 
Cn1ccn2c(=O)c(O)c(C(=O)NCc3ccc(Cl)c(Cl)c3)nc12 |  |  | 100 to 1000 nM |  |  | EC50 [4]: 100 to 1000 nM; EC50 [5]: 1 to 100 nM; EC50 [6]: > 10 µM; EC50 (HIV WT integrase): 1 to 100 nM; EC50 [7]: 1000 to 10000 nM; EC50 [8]: > 10 µM
